The values that follow come from patent US8470787B2, “Hydrates of erythromycin salts, preparation and use thereof” (priority 2008, dated 2013).

A short description of data set [1]: hygroscopic test according to China Pharmacopeia CP2005. In kind it is physicochemical. The following applies: 25° C.
Data set [2] is described as follows: accelerated stability test (sealed vial, 30° C., HPLC content and related substances). The class given is physicochemical. As to the method: The hydrates of erythromycin salts according to the present invention can be stably stored. A sample of the above hydrates was sealed in a vial, and an accelerated stability test was conducted at 30° C. and changes of the content and related substances were measured by a HPLC method (C18 reverse phase column, 0.01M KH2PO4-acetonitrile (60:40) as the mobile phase, detective wavelength: 215 nm, column temperature: 35° C., flow rate: 1.0 ml/min) (upon different hydrates of erythromycin salts, such as crystalline hydrates of erythromycin thiocyanate, the pH of the mobile phase can be adjusted and KH2PO4 can be changed into NaH2PO4, the detective wavelength can be changed into 210 nm, and the column temperature can be set at 35-55° C., such as 50° C. for analysis and measurement). […] As compared to the anhydrous of erythromycin salt, the hydrates of erythromycin salts according to the present invention have a lower hygroscopicity, i.e., has a better stability of hygroscopicity, which facilitates the package and storage thereof, or is a more advantageously stable form for storage relative to the anhydrous.

Data set [3] concerns Staphylococcus epidermidis. In words: antibacterial activity, tube double dilution method, clinically obtained bacteria. The class given is cell-based. The following applies: 21 strains.
The test system of another data set is Escherichia coli. Described as above. In kind it is cell-based. The following applies: 21 strains.
The subject of a further data set is Staphylococcus aureus. The description is as above. The following applies: 26 strains. In kind it is cell-based.
Another data set concerns Streptococcus viridan. The data set is described as above. The following applies: 23 strains. In kind it is cell-based.
For the next data set, the system named is Bacillus influenzae. Described as above. The following applies: for MIC50 / MIC90: 17 strains; for MIC: range over 17 strains. In kind it is cell-based. How it is done: (§1) The antibacterial activities of the hydrates of erythromycin salts are determined by culturing clinically obtained bacteria and measuring in accordance with pharmacological test methods (the tube double dilution method), and the results are shown in the following tables 9, 10, 11 and 12.

Data set [4] has as its system Streptococcus hemolyticus. Described as above. The class given is cell-based. The following applies: for MIC50 / MIC90: 16 strains; for MIC: range over 16 strains. As to the method:
as §1

A further data set relates to Pneumococcus. Described as above. The following applies: for MIC50 / MIC90: 18 strains; for MIC: range over 18 strains. In kind it is cell-based. As to the method:
as §1

In a further data set the test system is Anaerobe. Described as above. In kind it is cell-based. The following applies: for MIC50 / MIC90: 16 strains; for MIC: range over 16 strains. How it is done:
as §1

In the next data set the test system is Bacillus fragilis. Described as above. The class given is cell-based. The following applies: for MIC50 / MIC90: 15 strains; for MIC: range over 15 strains. As to the method:
as §1

The subject of another data set is Neisseria gonorrhoeae. Described as above. The following applies: for MIC50 / MIC90: 16 strains; for MIC: range over 16 strains. The class given is cell-based. How it is done:
as §1

Another data set concerns Propionibacterium. The description is as above. In kind it is cell-based. The following applies: for MIC50 / MIC90: 18 strains; for MIC: range over 18 strains. As to the method: as §1

Read-outs that look alike come from different tables or passages of the source.

Consider `CC[C@H]1OC(=O)[C@H](C)[C@@H](O[C@H]2C[C@@](C)(OC)[C@@H](O)[C@H](C)O2)[C@H](C)[C@@H](O[C@@H]2O[C@H](C)C[C@H](N(C)C)[C@H]2O)[C@](C)(O)C[C@@H](C)C(=O)[C@H](C)[C@@H](O)[C@]1(C)O.O=C(O)[C@H](O)[C@@H](O)[C@H](O[C@@H]1O[C@H](CO)[C@H](O)[C@H](O)[C@H]1O)[C@H](O)CO` [Erythromycin lactobionate anhydrous, reference compound], for which, in data set [1] (relative humidity 75%), the “hygroscopicity (in words), compared with the anhydrous” value is listed as “more hygroscopic”.

In the case of `CC[C@H]1OC(=O)[C@H](C)[C@@H](O[C@H]2C[C@@](C)(OC)[C@@H](O)[C@H](C)O2)[C@H](C)[C@@H](O[C@@H]2O[C@H](C)C[C@H](N(C)C)[C@H]2O)[C@](C)(O)C[C@@H](C)C(=O)[C@H](C)[C@@H](O)[C@]1(C)O.O.O.O.O.O.O.O=C(O)[C@H](O)[C@@H](O)[C@H](O[C@@H]1O[C@H](CO)[C@H](O)[C@H](O)[C@H]1O)[C@H](O)CO` [erythromycin lactobionate hexahydrate], the “Assay (%)” value in [2] (month 0) is reported as 99.7%; in [2] (month 1), 99.6%; in data set [2] (month 2), 100.2%; in data set [2] (month 3), 99.8%; in data set [2] (month 6), 99.6%. The Form result in [2] (month 0), in [2] (month 1), in data set [2] (month 2), in data set [2] (month 3) and in data set [2] (month 6) was “off-white powder” in each case. For the same molecule, the MIC50 was found to be 16 µg/mL in [3]; 4 µg/mL in the data set on Escherichia coli; 0.12 µg/mL in the data set on Staphylococcus aureus; 0.06 µg/mL against Streptococcus viridan; 4 µg/mL in the data set on Bacillus influenzae; 0.06 µg/mL in data set [4]. For the same molecule, the MIC50 against Pneumococcus is 0.06 µg/mL; in the data set on Anaerobe, 2 µg/mL; against Bacillus fragilis, 4 µg/mL; against Neisseria gonorrhoeae, 0.25 µg/mL; in the data set on Propionibacterium it was 0.06 µg/mL. Also, the MIC90 turned out to be 0.5 µg/mL in the data set with Streptococcus viridan; 8 µg/mL in the data set on Bacillus influenzae; 32 µg/mL in [4]; 1 µg/mL against Pneumococcus; 16 µg/mL in the data set on Anaerobe; 16 µg/mL in the data set with Bacillus fragilis. Moreover, the MIC90 in the data set with Neisseria gonorrhoeae stood at 1 µg/mL; in the data set with Propionibacterium, 0.12 µg/mL. The MIC against Bacillus influenzae was 0.12 to 8 µg/mL; in data set [4], 0.03 to 32 µg/mL; in the data set with Pneumococcus it was 0.03 to 0.5 µg/mL; against Anaerobe it was 0.06 to 64 µg/mL; in the data set on Bacillus fragilis, 0.5 to 64 µg/mL; against Neisseria gonorrhoeae, 0.06 to 2 µg/mL. The MIC in the data set with Propionibacterium fell in the range of 0.03 to 16 µg/mL.

On to `CC[C@H]1OC(=O)[C@H](C)[C@@H](O[C@H]2C[C@@](C)(OC)[C@@H](O)[C@H](C)O2)[C@H](C)[C@@H](O[C@@H]2O[C@H](C)C[C@H](N(C)C)[C@H]2O)[C@](C)(O)C[C@@H](C)C(=O)[C@H](C)[C@@H](O)[C@]1(C)O` [erythromycin lactobionate trihydrate], for which the “Assay (%)” value is 99.9% in data set [2] (month 0); 100.2% in [2] (month 1); 99.8% in data set [2] (month 2); 100.1% in data set [2] (month 3); 99.9% in [2] (month 6). Besides, the Form result in [2] (month 0), in [2] (month 1), in [2] (month 2), in data set [2] (month 3) and in data set [2] (month 6) was “off-white powder” each time. For the same molecule, the MIC50 in data set [3] (Staphylococcus epidermidis, read-out: MIC50) was found to be 16 µg/mL; in the data set on Escherichia coli (Escherichia coli, read-out: MIC50), 4 µg/mL; in the data set on Staphylococcus aureus (Staphylococcus aureus, read-out: MIC50), 0.12 µg/mL; in the data set on Streptococcus viridan (Streptococcus, read-out: MIC50), 0.06 µg/mL; in the data set on Bacillus influenzae (Bacillus, read-out: MIC50), 4 µg/mL; in [4] (Streptococcus pyogenes, read-out: MIC50), 0.06 µg/mL. In addition, the MIC50 in the data set on Pneumococcus (read-out: MIC50) was 0.06 µg/mL; in the data set on Bacillus fragilis (Bacillus, read-out: MIC50), 4 µg/mL; in the data set on Neisseria gonorrhoeae (Neisseria gonorrhoeae, read-out: MIC50) it was 0.25 µg/mL; in the data set on Propionibacterium (Propionibacterium, read-out: MIC50) it was 0.06 µg/mL. In addition, the MIC90 in the data set on Streptococcus viridan (Streptococcus, read-out: MIC90) worked out at 0.5 µg/mL; in the data set with Bacillus influenzae (Bacillus, read-out: MIC90), 8 µg/mL; in data set [4] (Streptococcus pyogenes, read-out: MIC90), 32 µg/mL; in the data set with Pneumococcus (read-out: MIC90), 1 µg/mL; in the data set on Bacillus fragilis (Bacillus, read-out: MIC90), 16 µg/mL; with Neisseria gonorrhoeae (Neisseria gonorrhoeae, read-out: MIC90) it was 1 µg/mL. The MIC90 in the data set with Propionibacterium (Propionibacterium, read-out: MIC90) was determined as 0.12 µg/mL. The MIC is 0.12 to 8 µg/mL with Bacillus influenzae (Bacillus, read-out: MIC); 0.03 to 32 µg/mL in [4]; 0.03 to 0.5 µg/mL with Pneumococcus (read-out: MIC); 0.5 to 64 µg/mL with Bacillus fragilis (Bacillus, read-out: MIC); 0.06 to 2 µg/mL in the data set with Neisseria gonorrhoeae (Neisseria gonorrhoeae, read-out: MIC); 0.03 to 16 µg/mL with Propionibacterium (Propionibacterium, read-out: MIC).

For `CC[C@H]1OC(=O)[C@H](C)[C@@H](O[C@H]2C[C@@](C)(OC)[C@@H](O)[C@H](C)O2)[C@H](C)[C@@H](O[C@@H]2O[C@H](C)C[C@H](N(C)C)[C@H]2O)[C@](C)(O)C[C@@H](C)C(=O)[C@H](C)[C@@H](O)[C@]1(C)O.N#CS.O.O` [erythromycin thiocyanate dihydrate], the “Assay (%)” value turned out to be 99.9% in [2] (month 0); 99.9% in data set [2] (month 1); 100.4% in data set [2] (month 2); 100.2% in data set [2] (month 3); 99.8% in data set [2] (month 6). The Form entry in data set [2] (month 0), in data set [2] (month 1), in data set [2] (month 2), in [2] (month 3) and in data set [2] (month 6) was “off-white powder” each time. Besides, the MIC50 amounted to 16 µg/mL in data set [3]; 4 µg/mL against Escherichia coli; 0.12 µg/mL against Staphylococcus aureus; 0.06 µg/mL with Streptococcus viridan; 4 µg/mL with Bacillus influenzae; 0.06 µg/mL in data set [4]. In addition, the MIC50 in the data set on Pneumococcus turned out to be 0.06 µg/mL; against Anaerobe it was 2 µg/mL; in the data set with Bacillus fragilis, 4 µg/mL; with Neisseria gonorrhoeae, 0.25 µg/mL; in the data set with Propionibacterium it was 0.06 µg/mL. Also, the MIC90 was 0.5 µg/mL in the data set with Streptococcus viridan; 8 µg/mL in the data set on Bacillus influenzae; 32 µg/mL in data set [4]; 1 µg/mL against Pneumococcus; 16 µg/mL in the data set with Anaerobe; 16 µg/mL against Bacillus fragilis. Further, the results for the MIC90 in the data set on Neisseria gonorrhoeae and against Propionibacterium were 1 µg/mL and 0.12 µg/mL, respectively. Besides, the MIC with Bacillus influenzae is 0.12 to 8 µg/mL; in [4], 0.03 to 32 µg/mL; against Pneumococcus, 0.03 to 0.5 µg/mL; in the data set on Anaerobe it was 0.06 to 64 µg/mL; against Bacillus fragilis, 0.5 to 64 µg/mL; with Neisseria gonorrhoeae, 0.06 to 2 µg/mL. The molecule further returned an MIC against Propionibacterium of 0.03 to 16 µg/mL.

On to `CC[C@H]1OC(=O)[C@H](C)[C@@H](O[C@H]2C[C@@](C)(OC)[C@@H](O)[C@H](C)O2)[C@H](C)[C@@H](O[C@@H]2O[C@H](C)C[C@H](N(C)C)[C@H]2O)[C@](C)(O)C[C@@H](C)C(=O)[C@H](C)[C@@H](O)[C@]1(C)O.N#CS.O.O.O` [erythromycin thiocyanate trihydrate], for which the “Assay (%)” value in data set [2] (month 0) is recorded as 99.8%; in data set [2] (month 1) it was 99.9%; in data set [2] (month 2) it was 100.6%; in data set [2] (month 3) it was 100.3%; in data set [2] (month 6), 100.1%. The Form result in [2] (month 0), in [2] (month 1), in data set [2] (month 2), in data set [2] (month 3) and in data set [2] (month 6) was “off-white powder” each time.

With “erythromycin thiocyanate hemitri(1.5)hydrate”, the “Assay (%)” value came out at 99.9% in data set [2] (month 0); 100.3% in [2] (month 1); 100.5% in [2] (month 2); 100.1% in data set [2] (month 3); 100.2% in data set [2] (month 6). Besides, the Form entry in data set [2] (month 0), in data set [2] (month 1), in data set [2] (month 2), in data set [2] (month 3) and in data set [2] (month 6) was “off-white powder” in each case. In addition, in data set [1] (RH 75%, 48 h), the “Hygroscopic weight gain %, relative to 0 h” value was determined as 3.12%.
